“Also recorded” adds a separate entry of the source.

Assay type in all cases: cell-based
One assay concerns RAW 264.5 macrophages. Briefly: NO release (nitrite, Greiss reagent) upon induction with LPS and γ-IFN in macrophagic cells. As to conditions: FIG. 1 / FIG. 4.
The subject of the next assay is NF-κB. Briefly: Electrophoretic mobility shift assay of NF-κB induced by interleukin-18. As to conditions: incubation with IL-18, FIG. 3. Background: A gel shift assay detects complexes by their altered migration in electrophoresis.
The test system of a further assay is iNOS protein. Briefly: Western blot of iNOS protein induction by LPS and γ-interferon in macrophagic cells. As to conditions: γ-IFN and LPS, FIG. 2.
A further assay concerns p-ERK. Briefly: Western blot of p-ERK (p42/p44 MAP kinase). As to conditions: FIG. 5.
Another assay has as its system cytomegalovirus (CMV). As to the kind of experiment: Cytomegalovirus replication in infected RAW 264.5 macrophages. As to conditions: RAW 264.5 macrophages infected with CMV; FIG. 6.
The test system of assay [1] is herpes simplex virus (HSV). As to the kind of experiment: Herpes simplex virus replication. As to conditions: FIG. 7.

For `Cc1cccc(Cc2nnc(C(=O)C(NC(=O)[C@@H]3CCCN3C(=O)[C@@H](NC(=O)OCc3ccccc3)C(C)C)C(C)C)o2)c1` (stereo partly drawn) [CE-2072, benzyloxycarbonyl-L-valyl-N-[1-(2-[5-(3-methylbenzyl)-1,3,4-oxadiazolyl]carbonyl)-2-(S)-methylpropyl]-L-prolinamide, reference compound], in the assay with RAW 264.5 macrophages, the “NO levels induced by γ-IFN and LPS (measured as NO2-)” value is reported as “inhibits NO levels”. Also, in the assay on NF-κB, the “induction of active NF-κB” value was “inhibit the induction of active NF-κB”.
“α1-antitrypsin: glycoprotein of MW 51,000 with 417 amino acids and 3 oligosaccharide side chains; naturally occurring serine protease inhibitor”: the “NO levels induced by γ-IFN and LPS (measured as NO2-)” value in the assay on RAW 264.5 macrophages was “efficiently block γ-IFN- and LPS-induced NO synthesis; also recorded: inhibits NO levels”. Further, the “induction of iNOS protein” value in the assay with iNOS protein is “inhibits induction of iNOS protein”. Also, the “induction of active NF-κB” value in the assay with NF-κB was “inhibit the induction of active NF-κB”. Besides, the “level and/or phosphorylation of p-ERK” value in the assay with p-ERK is on record as “inhibits the level and/or phosphorylation of p-ERK”. Further, the CMV replication result with cytomegalovirus (CMV) is “blocks CMV replication”. For the same compound, in assay [1], the “replication of HSV” value is “inhibits replication of HSV”.

(Values after US6489308B1, “Inhibitors of serine protease activity, methods and compositions for treatment of nitric-oxide-induced clinical conditions” (Trustees of University of Technology Corporation, priority 1999, dated 2002).)
